Source: patent US20220380319A1 (Bial - R&D Investments, S.A., priority 2019, published 2022)
≈ marks a conversion by molar mass, not a printed value.

Tests used:
acid ceramidase = target: T1, acid ceramidase (Homo sapiens, UniProt Q13510); test: Acid ceramidase inhibition, biochemical fluorescent assay with cell lysates overexpressing acid ceramidase, substrate Rbm14-12; conditions: substrate Rbm14-12 6.3 μM
T1 construct: Cell lysates overexpressing acid ceramidase were used as the enzyme source; expressed in transfected cells
T1 sequence (Q13510 22-395): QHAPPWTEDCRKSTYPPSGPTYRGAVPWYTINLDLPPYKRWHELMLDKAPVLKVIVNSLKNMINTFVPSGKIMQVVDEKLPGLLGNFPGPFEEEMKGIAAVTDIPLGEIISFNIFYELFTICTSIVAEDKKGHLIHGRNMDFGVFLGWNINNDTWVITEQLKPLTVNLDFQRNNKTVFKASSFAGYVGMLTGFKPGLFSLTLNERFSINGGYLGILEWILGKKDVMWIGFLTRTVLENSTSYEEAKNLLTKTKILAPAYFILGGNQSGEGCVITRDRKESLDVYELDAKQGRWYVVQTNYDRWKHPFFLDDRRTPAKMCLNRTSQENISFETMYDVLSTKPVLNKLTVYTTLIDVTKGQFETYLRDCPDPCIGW
Summary of the method: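 IC50 derived by four-parameter fitting of fluorescence (ex360 nm, em446 nm) produced after 1 hr in methanol/NaIO4/glycine stop buffer, pH 10.6. Reaction: 6.3 μM Rbm14-12, 1 hr RT, following 1 hr RT compound preincubation with 10 μg overexpressing-cell lysate protein in pH 4.5 NaAC/NaCl buffer.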

[1] = Compound solubility in water
[2] = pH 4.5, 1 hr preincubation at RT

IC50 (acid ceramidase; [2]) | solubility [1] | IC50 (acid ceramidase; pH 4.5) | Structure (SMILES)
0.2 to 1 µM | 31.7 µg/mL (≈ 96.5 µM) |  | CCCCNC(=O)n1cnc2c(C3CCN(C)CC3)cc(C)cc21 [Example 107a]
< 0.2 µM | 16 µg/mL (≈ 40.6 µM) |  | COc1nc2cc(N3CCOCC3)ccc2n1C(=O)NCCCc1ccccc1 [Example 134b, 2-methoxy-5-morpholino-N-(3-phenylpropyl)-1H-benzo[d]imidazole-1-carboxamide]
 | 10 µg/mL (≈ 29.3 µM) | < 0.2 µM | CC(C)CCNC(=O)n1cnc2c(N3CCOCC3)cc(C#N)cc21 [Example 179, 6-Cyano-N-iso-pentyl-4-morpholino-1H-benzo[d]imidazole-1-carboxamide]
0.2 to 1 µM | 22.6 µg/mL (≈ 87.2 µM) |  | COc1cccc2c1ncn2C(=O)NCCC1CC1 [Example 121, N-(2-Cyclopropylethyl)-4-methoxy-1H-benzo[d]imidazole-1-carboxamide]
 | 29 µg/mL (≈ 75.4 µM) | 0.2 to 1 µM | COc1nc2ccc(N3CCOCC3)cc2n1C(=O)NCCCc1ccco1 [Example 228a, N-(3-(Furan-2-yl)propyl)-2-methoxy-6-morpholino-1H-benzo[d]imidazole-1-carboxamide]
< 0.2 µM | 23.2 µg/mL (≈ 61.6 µM) |  | CN1CCC(c2cccc3c2ncn3C(=O)NCCCc2ccccc2)CC1 [Example 44, 4-(1-Methylpiperidin-4-yl)-N-(3-phenylpropyl)-1H-benzo[d]imidazole-1-carboxamide]
 | 10 µg/mL (≈ 29 µM) | < 0.2 µM | CC(C)(C)CCCNC(=O)n1cnc2c(N3CCOCC3)cccc21 [Example 186, N-(4,4-Dimethylpentyl)-4-morpholino-1H-benzo[d]imidazole-1-carboxamide]
 | 12 µg/mL (≈ 31.2 µM) | < 0.2 µM | COc1nc2c(N3CCN(C)CC3)cc(C#N)cc2n1C(=O)NCCC(C)C [Example 210, 6-Cyano-N-iso-pentyl-2-methoxy-4-(4-methylpiperazin-1-yl)-1H-benzo[d]imidazole-1-carboxamide]
< 0.2 µM | 14.5 µg/mL (≈ 39.9 µM) |  | CC(C)CNC(=O)n1cnc2cc(-c3cncnc3)c(C(F)(F)F)cc21 [Example 77a, N-iso-Butyl-5-(pyrimidin-5-yl)-6-(trifluoromethyl)-1H-benzo[d]imidazole-1-carboxamide]
 | 27 µg/mL (≈ 73.9 µM) | 0.2 to 1 µM | CC(C)C#CCNC(=O)n1cnc2c(N3CC4CCC3CN4C)cccc21 (centres unmarked) [Example 304, 4-(5-Methyl-2,5-diazabicyclo[2.2.2]octan-2-yl)-N-(4-methylpent-2-ynyl)-1H-benzo[d]imidazole-1-carboxamide]
0.2 to 1 µM | 12.9 µg/mL (≈ 48.4 µM) |  | O=C(NCCc1cccnc1)n1cnc2ccccc21 [Example 22, N-(2-(Pyridin-3-yl)ethyl)-1H-benzo[d]imidazole-1-carboxamide]
 | 23 µg/mL (≈ 60.8 µM) | < 0.2 µM | CC(C)C#CCNC(=O)n1cnc2c(N3CCN(C)C(CC#N)C3)cccc21 (centres unmarked) [Example 306, 4-(3-(Cyanomethyl)-4-methylpiperazin-1-yl)-N-(4-methylpent-2-ynyl)-1H-benzo[d]imidazole-1-carboxamide]
 | 25 µg/mL (≈ 63.9 µM) | < 0.2 µM | CC1(N)CCN(c2cccc3c2ncn3C(=O)NCCCc2ccccc2)CC1 [Example 263, 4-(4-Amino-4-methylpiperidin-1-yl)-N-(3-phenylpropyl)-1H-benzo[d]imidazole-1-carboxamide]
< 0.2 µM | 26.1 µg/mL (≈ 98 µM) |  | O=C(NCCc1ccccc1)n1cnc2ncccc21 [Example 19a, N-Phenethyl-1H-imidazo[4,5-b]pyridine-1-carboxamide]
0.2 to 1 µM | 22.8 µg/mL (≈ 70.1 µM) |  | COc1nc2ccc(-c3cncnc3)cc2n1C(=O)NCC(C)C [Example 81a, N-iso-Butyl-2-methoxy-6-(pyrimidin-5-yl)-1H-benzo[d]imidazole-1-carboxamide]
< 0.2 µM | 54 µg/mL (≈ 165 µM) |  | CCCCNC(=O)n1c(OC)nc2nc(-c3cncnc3)ccc21 [Example 85b, N-butyl-2-methoxy-5-(pyrimidin-5-yl)-1H-imidazo[4,5-b]pyridine-1-carboxamide]
 | 34 µg/mL (≈ 86.9 µM) | < 0.2 µM | CN1CCN(c2cccc3c2ncn3C(=O)NCCC2CCC(F)(F)C2)CC1 (centres unmarked) [Example 258, N-(2-(3,3-Difluorocyclopentyl)ethyl)-4-(4-methylpiperazin-1-yl)-1H-benzo[d]imidazole-1-carboxamide]
0.2 to 1 µM | 18 µg/mL (≈ 47.3 µM) |  | COc1nc2ccc(N3CCOCC3)cc2n1C(=O)NCCc1ccccc1 [28 & 29a]
> 1 µM | 1.2 µg/mL (≈ 3.15 µM) |  | COc1nc2c(N3CCC(F)(F)CC3)cccc2n1C(=O)NCCC(C)C [Example 144, 4-(4,4-Difluoropiperidin-1-yl)-N-isopentyl-2-methoxy-1H-benzo[d]imidazole-1-carboxamide]

IC50 (acid ceramidase; [2]) | solubility [1] | IC50 (acid ceramidase; pH 4.5) | Structure (SMILES)
 | 30 µg/mL (≈ 79.1 µM) | < 0.2 µM | CNC1CCN(c2cccc3c2ncn3C(=O)NCCOc2ccccc2)C1 (centres unmarked) [Example 315, 4-(3-(Methylamino)pyrrolidin-1-yl)-N-(2-phenoxyethyl)-1H-benzo[d]imidazole-1-carboxamide]
< 0.2 µM | 3.6 µg/mL (≈ 12.7 µM) |  | O=C(NCCc1ccccc1)n1cnc2c(F)cccc21 [Example 64, 4-Fluoro-N-phenethyl-1H-benzo[d]imidazole-1-carboxamide]
 | 43 µg/mL (≈ 106 µM) | > 1 µM | COc1nc2cc(C3CCN(C)CC3)ccc2n1C(=O)NCCCc1ccccc1 [Example 195a, 2-Methoxy-5-(1-methylpiperidin-4-yl)-N-(3-phenylpropyl)-1H-benzo[d]imidazole-1-carboxamide]
< 0.2 µM | 21.1 µg/mL (≈ 77.8 µM) |  | O=C(NCCCC(F)(F)F)n1cnc2ccccc21 [Example 80, N-(4,4,4-Trifluorobutyl)-1H-benzo[d]imidazole-1-carboxamide]
< 0.2 µM | 0.5 µg/mL (≈ 1.56 µM) |  | O=C(NCCc1ccccc1)n1c(OC2CC2)nc2ccccc21 [Example 34, 2-Cyclopropoxy-N-phenethyl-1H-benzo[d]imidazole-1-carboxamide]
< 0.2 µM | 5 µg/mL (≈ 15.6 µM) |  | N#Cc1cccc2c1ncn2C(=O)NCCCOc1ccccc1 [Example 131, 4-Cyano-N-(3-phenoxypropyl)-1H-benzo[d]imidazole-1-carboxamide]
 | 31 µg/mL (≈ 79.2 µM) | 0.2 to 1 µM | CN1CCN(c2cccc3c2ncn3C(=O)NCCCC2CC(F)(F)C2)CC1 [Example 260, N-(3-(3,3-Difluorocyclobutyl)propyl)-4-(4-methylpiperazin-1-yl)-1H-benzo[d]imidazole-1-carboxamide]
< 0.2 µM | 0.4 µg/mL (≈ 1.15 µM) |  | O=C(NCCOc1ccccc1)n1cnc2cc(C(F)(F)F)ccc21 [Example 46a, N-(2-Phenoxyethyl)-5-(trifluoromethyl)-1H-benzo[d]imidazole-1-carboxamide]
 | 15 µg/mL (≈ 45.4 µM) | 0.2 to 1 µM | CC(C)CCNC(=O)n1cnc2c(N3CCO[C@@H](C)C3)cccc21 [Example 171, (S)—N-iso-Pentyl-4-(2-methylmorpholino)-1H-benzo[d]imidazole-1-carboxamide]
 | 18 µg/mL (≈ 44 µM) | < 0.2 µM | CN1CCN(c2cccc3c2ncn3C(=O)NCCCc2ccccc2)CC1CF (centres unmarked) [Example 277, 4-(3-(Fluoromethyl)-4-methylpiperazin-1-yl)-N-(3-phenylpropyl)-1H-benzo[d]imidazole-1-carboxamide]
< 0.2 µM | 5.9 µg/mL (≈ 19.3 µM) |  | N#Cc1cccc2c1ncn2C(=O)NCCOc1ccccc1 [Example 74, 4-Cyano-N-(2-phenoxyethyl)-1H-benzo[d]imidazole-1-carboxamide]
 | 5 µg/mL (≈ 14.6 µM) | 0.2 to 1 µM | CC(C)CCNC(=O)n1cnc2c(N3CC4CCC(C3)O4)cccc21 [Example 221, 4-(8-Oxa-3-azabicyclo[3.2.1]octan-3-yl)-N-isopentyl-1H-benzo[d]imidazole-1-carboxamide]
< 0.2 µM | 23.1 µg/mL (≈ 58.2 µM) |  | CN1CCC(c2cc3c(cc2Cl)ncn3C(=O)NCCc2ccccc2)CC1 [Example 11a, 5-Chloro-6-(1-methylpiperidin-4-yl)-N-phenethyl-1H-benzo[d]imidazole-1-carboxamide]
 | 29 µg/mL (≈ 76.4 µM) | < 0.2 µM | CC(C)C#CCNC(=O)n1cnc2c(N3CCC4(CC3)CCN4C)cccc21 [Example 313, 4-(1-Methyl-1,7-diazaspiro[3.5]nonan-7-yl)-N-(4-methylpent-2-yn-1-yl)-1H-benzo[d]imidazole-1-carboxamide]
< 0.2 µM | 5.3 µg/mL (≈ 19.9 µM) |  | O=C(NCCc1ccccc1)n1cnc2cnccc21 [Example 20, N-Phenethyl-1H-imidazo[4,5-c]pyridine-1-carboxamide]
< 0.2 µM | 31.2 µg/mL (≈ 89 µM) |  | O=C(NCCc1ccccc1)n1cnc2ccc(N3CCOCC3)cc21 [Example 14b, 6-Morpholino-N-phenethyl-1H-benzo[d]imidazole-1-carboxamide]
 | 4 µg/mL (≈ 11.2 µM) | 0.2 to 1 µM | CC(C)CCNC(=O)n1cnc2c(N3CCO[C@@H](C(C)C)C3)cccc21 [Example 172a, (S)—N-iso-Pentyl-4-(2-iso-propylmorpholino)-1H-benzo[d]imidazole-1-carboxamide]
< 0.2 µM | 33 µg/mL (≈ 78.7 µM) |  | CN1CC2(CCN(c3cccc4c3ncn4C(=O)NCCOc3ccccc3)CC2)C1 [Example 351, 4-(2-Methyl-2,7-diazaspiro[3.5]nonan-7-yl)-N-(2-phenoxyethyl)-1H-benzo[d]imidazole-1-carboxamide]
